Literature values as cited in US20240292871A1, “A SWEETENER OR SWEETNESS ENHANCER COMPOSITION” (ANALYTICON DISCOVERY GMBH, priority 2020, published 2024).

Conditions: 5% sucrose in water

SMILES: COc1ccc([C@@H]2CC(=O)c3c(O)cc(O)cc3O2)cc1O [hesperetin]
- enhances the sweetness of sucrose: 41%
